Measurements taken from patent US20130337564A1, “Treatment of Pluripotent Cells” (Janssen Biotech, Inc., priority 2012, published 2013).
Several values for one entry are separate records, joined by “and”; a condition that tells them apart may be missing. Equal entries are not always repeated.

Tests used:
Format in all cases: cell-based
[1] = tested on: cells expressing pluripotency markers derived from human embryonic stem cells; experiment: MTS viability (toxicity) assay of cells expressing pluripotency markers; parameters: Raw data (duplicate), first replicate / Average: unit not given here; conditions: for viability at 10 µM: Homo sapiens, Embryonic stem cell; for viability at 10 µM / % Control: viability of cells expressing pluripotency markers, relative to control; for Raw data (duplicate), first replicate / Raw data (duplicate), second replicate: MTS viability assay raw reading; for Raw data (duplicate), first replicate: replicate 1; for Raw data (duplicate), second replicate: replicate 2; for Average: average of duplicate MTS raw readings
Procedure, shortened: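 A GSK-3B inhibitor library was screened for toxicity to pluripotency-marker-expressing cells. Compound was given in DMEM:F12 with 0.5% FCS and 100 ng/ml Activin A for two days, then replaced by medium with 2% FCS and Activin A. On day 4, MTS absorbance at 490 nm gave viability as percent of Activin A plus Wnt3a control wells.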

[2] = tested on: human embryonic stem cells (H9 line); experiment: High content screening assay: cell number (proliferative response); conditions: for fold induction at 10 µM: Homo sapiens, Embryonic stem cell, read-out: Proliferative Response, Fold over Wnt 3a/AA control
Protocol: (§1) Maintenance of human embryonic stem cells (H9 line) was conducted as described in Example 1. Colonies of cells were maintained in an undifferentiated, pluripotent state with passage on average every four days. Passage was performed by exposing cell cultures to a solution of collagenase (1 mg/ml; Sigma-Aldrich) for 10 to 30 minutes at 37° C. followed by gentle scraping with a pipette tip to recover cell clusters. Clusters were allowed to sediment by gravity, followed by washing to remove residual collagenase. Cell clusters were split at a 1:3 ratio for routine maintenance culture or a 1:1 ratio for immediate assay. The human embryonic stem cell lines used were maintained at passage numbers less than passage 50 and routinely evaluated for normal karyotypic phenotype and absence of mycoplasma contamination.
(§2) Cell clusters used in the assay were evenly resuspended in normal culture medium and plated onto MATRIGEL-coated 96-well Packard VIEWPLATES (PerkinElmer) in volumes of […]. MEF conditioned medium supplemented with 8 ng/ml bFGF was used for initial plating and recovery. Daily feeding was conducted by aspirating spent culture medium from each well and replacing with an equal volume of fresh medium. Plates were maintained at 37° C., 5% CO2 in a humidified box throughout the duration of assay.
(§3) Screening was conducted using test compounds from a proprietary library of small molecules selected for their ability to inhibit GSK-3B enzyme activity. Compounds from this library were made available as 1 mM stocks, in a 96-well plate format in 50 mM HEPES, 30% DMSO. Screening compounds were tested in triplicate or duplicate sets. Primary screening assays were initiated by aspirating culture medium from each well followed by three washes in PBS to remove residual growth factors and serum. Test volumes of 80 to 100 μl per well were added back containing DMEM:F12 base medium (Invitrogen) supplemented with 0.5% FCS (HyClone) and 100 ng/ml activin A (R&D Biosystems) plus 10 μM test compound. Positive control wells contained the same base medium, substituting 10-20 ng/ml Wnt3a (R&D Biosystems) for the test compound. Negative control wells contained base medium with 0.5% FCS and activin A alone (AA only) or alternatively, 0.5% FCS without activin A or Wnt3a (no treatment). Wells were aspirated and fed again with identical solutions on day 2 of assay. On days 3 and 4, all assay wells were aspirated and converted to DMEM:F12 supplemented with 2% FCS and 100 ng/ml activin A (without test compound or Wnt3a); parallel negative control wells were maintained in DMEM:F12 base medium with 2% FCS and activin A (AA only) or alternatively, 2% FCS without activin A (no treatment).
(§4) At the end of culture, cells in 96-well plates were fixed with 4% paraformaldehyde at room temperature for 20 minutes, washed three times with PBS, and then permeabilized with 0.5% Triton X-100 for 20 minutes at room temperature. Alternatively, cells were fixed with ice cold 70% ethanol overnight at −20° C., washed three times with PBS, and then permeabilized with Triton X-100 for 5 minutes at 4° C. After fixing and permeabilizing, cells were washed again three times with PBS and then blocked with 4% chicken serum (Invitrogen) in PBS for 30 minutes at room temperature. Primary antibodies (goat anti-human Sox17 and goat anti-human HNF-3beta; R&D Systems) were diluted 1:100 in 4% chicken serum and added to cells for one hour at room temperature. Alexa Fluor 488 conjugated secondary antibody (chicken anti-goat IgG; Molecular Probes) was diluted 1:200 in PBS and added after washing the cells three times with PBS. To counterstain nuclei, 5 mM Draq5 (Alexis Biochemicals) was added for five minutes at room temperature. Cells were washed once with PBS and left in […] PBS for imaging.
(§5) Cells were imaged using an IN Cell Analyzer 1000 (GE Healthcare) utilizing the 51008bs dichroic for cells stained with Draq5 and Alexa Fluor 488. […]

[3] = tested on: Sox17 expression in human embryonic stem cells (H9 line); experiment: High content screening assay: Sox17 protein expression (differentiation); conditions: for SOX-17 Expression Fold over Wnt 3a/AA control: total intensity normalised to Wnt 3a/AA control
Protocol: as §1, §2, §3, §4, §5

[4] = tested on: HNF-3beta expression in human embryonic stem cells (H9 line); experiment: High content screening assay: HNF-3beta protein expression (differentiation); conditions: for HNF-3b Expression Fold over Wnt 3a/AA control: total intensity normalised to Wnt 3a/AA control
Protocol: as §1, §2, §3, §4, §5

[5] = cell number in the wells analysed for HNF-3b expression
[6] = cell number in the wells analysed for SOX-17 expression
[7] = 10 μM test compound with 100 ng/ml activin A on days 1-2, H9, total cell number by IN Cell Analyzer, strong and moderate hits
[8] = 10 μM test compound with 100 ng/ml activin A on days 1-2, H9, total intensity by IN Cell Analyzer, strong and moderate hits
[9] = cell number in the wells analysed for HNF-3b expression, normalised to Wnt 3a/AA control
[10] = cell number in the wells analysed for SOX-17 expression, normalised to Wnt 3a/AA control

SMILES	viability at 10 µM [1] [%]	Raw data (duplicate), first replicate [1]	Raw data (duplicate), second replicate [1]	Average [1]	Proliferative Response Total cells [2, 5]	Proliferative Response Total cells [2, 6]	SOX-17 Expression Total Intensity [3]	HNF-3b Expression Total Intensity [4]	fold induction at 10 µM [2, 7]	fold induction at 10 µM ([3]; Homo sapiens, Embryonic stem cell, 10 μM test compound with 100 ng/ml activin A on days 1-2, H9, total intensity by IN Cell Analyzer, strong and moderate hits, read-out: SOX17 Expression, Fold over Wnt 3a/AA control)	HNF3β Expression, Fold over Wnt 3a/AA control [4, 8]	SOX17 Expression, Fold over Wnt 3a/AA control [3, 8]	fold induction at 10 µM ([4]; Homo sapiens, Embryonic stem cell, 10 μM test compound with 100 ng/ml activin A on days 1-2, H9, total intensity by IN Cell Analyzer, strong and moderate hits, read-out: HNF3β Expression, Fold over Wnt 3a/AA control)	% Control [1] [%]	Proliferative Response Fold over Wnt 3a/AA control [2, 7]	Proliferative Response Fold over Wnt 3a/AA control [2, 9] [fold]	Proliferative Response Fold over Wnt 3a/AA control [2, 10] [fold]	SOX-17 Expression Fold over Wnt 3a/AA control [3] [fold]	HNF-3b Expression Fold over Wnt 3a/AA control [4] [fold]
CN(C)CCCn1cc(C2=C(c3ccccc3Cl)C(=O)NC2=O)c2cccnc21 [Compound 12, 3-(2-Chlorophenyl)-4-{1-[3-(dimethylamino)propyl]-1H-pyrrolo[2,3-b]pyridin-3-yl}-1H-pyrrole-2,5-dione]	4.8	0.148	0.152	0.150	2410	2460.5	203350000	209795000											
O=C1NC(=O)C(c2nn(CCCO)c3ccccc23)=C1c1cn(-c2ccc3ccccc3c2)c2ccccc12 [Compound 13]	92.6	0.767	0.789	0.778	4556	4783	306085000	326475000	0.902	0.817	0.7104 Fold over Wnt 3a/AA control								
O=C1NC(=O)C(c2cn(-c3cccnc3)c3ccccc23)=C1c1n[nH]c2ccccc12 [Compound 14]	95.1								1.05			1.0080 Fold over Wnt 3a/AA control	0.869						
CCN1CCOCCn2cc(c3ccccc32)C2=C(C(=O)NC2=O)c2cn(c3ccccc23)CCOCC1 [Compound 15, 11-Ethyl-6,7,10,11,12,13,15,16-octahydro-9H,23H-5,26:17,22-di(metheno)dibenzo[k,q]pyrrolo[3,4-n][1,7,4,10,19]dioxatriazacyclohenicosine-23,25(24H)-dione]		0.162	0.134	0.148	5186	10533	475250000	404710000			0.8807 Fold over Wnt 3a/AA control	1.2678 Fold over Wnt 3a/AA control		4.5	1.3217 Fold over Wnt 3a/AA control and 1.0269 Fold over Wnt 3a/AA control	1.027	1.322	1.2678	0.8807
O=C1NC(=O)C2=C1c1cn(c3ncccc13)CCOCCOCCOCCn1cc2c2cccnc21 [Compound 167]		0.804	0.903	0.853	5013	6217	337920000	437235000			0.9515 Fold over Wnt 3a/AA control	0.9014 Fold over Wnt 3a/AA control		109.0	0.9928 Fold over Wnt 3a/AA control	0.9928	0.7801	0.9014	0.9515
